# In patent publication US20110257146A1, “Method of Treating Kcnq Related Disorders Using Organozinc Compounds” (The johns Hopkins University, priority 2006, published 2011):
# “Also recorded” adds a separate entry of the source.
# Experiments:
# KCNQ3 = target: T1, KCNQ3 (Rattus norvegicus, UniProt O88944); assay: Whole-cell voltage clamp of CHO cells expressing KCNQ3; assay type: cell-based; conditions: 10 μM ZnPy
# T1 construct: expressed in transfected cells; host or cells: CHO cells
# Method: (§1) Cell culture and transient transfection—Chinese Hamster Ovary (CHO) cells were grown in 50/50 DMEM/F12 (Cellgro) with 10% FBS (Gibco), 100 U/ml penicillin (Cellgro), 100 μg/ml streptomycin (Cellgro) and 2 mM L-glutamine (Gibco). At 24 hours before transfection, cells were split and plated in 60 mm dishes and were transfected with Lipofectamine2000™ reagent (Invitrogen) according to the manufacturer's instruction. At 24 hours after transfection, cells were split and re-plated onto coverslips coated with poly-L-lysine (Sigma). Plasmid expressing CD4 cDNA as a marker was cotransfected with the channel cDNAs of hKCNQ1 (from Dr. Michael Sanguinetti), hKCNQ4 (from Dr. Vitya Vardanyan), rKCNQ2, rKCNQ3, and hKCNQ5 (from Drs. David McKinnon, Mark Shapiro, and Thomas Jentsch). Prior to recording, anti-CD4 Dynabeads (Dynal. Biotech. Inc.) were added into the medium to allow for identification of the transfected cells. […]
# (§2) Electrophysiological Recording—Standard whole-cell recording was used. […] Current and voltage were recorded using an Axopatch-200A amplifier, filtered at 1 kHz and digitized using a DigiData 1322A with pClamp 9.2 software (Axon Instruments, Foster City, Calif.). […]
# Data and Statistical Analysis—Patch-clamp data were preprocessed using Clampfit 9.2 (Axon Instruments, Foster City, Calif.) and then analyzed in Origin 7 (OriginLab, Northampton, Mass.). […]
# KCNQ1 = target: T2, KCNQ1 (Homo sapiens, UniProt P51787); assay: Whole-cell voltage clamp of CHO cells expressing KCNQ1; assay type: cell-based; conditions: 10 μM ZnPy, extracellular
# T2 construct: expressed in transfected cells; host or cells: CHO cells
# Method: as §1, with “cells. Stable lines expressing Kv2.1, hERG, and Kv4.2 were generated by standard protocols using pcDNA3.1 and maintained at complete medium supplemented with 500 μg/ml G418.” for “cells.”
# as §2
# KCNQ5 = target: T3, KCNQ5 (Homo sapiens, UniProt Q9NR82); assay: Whole-cell voltage clamp of CHO cells expressing KCNQ5; assay type: cell-based; conditions: 10 μM ZnPy, extracellular
# T3 construct: expressed in transfected cells; host or cells: CHO cells
# Method: as §1, with “cells. Stable lines expressing Kv2.1, hERG, and Kv4.2 were generated by standard protocols using pcDNA3.1 and maintained at complete medium supplemented with 500 μg/ml G418.” for “cells.”
# as §2
# KCNQ2(L249A/L275A) = target: T4, KCNQ2(L249A/L275A) (Rattus norvegicus, UniProt O88943, L249A/L275A); assay: Whole-cell recording of KCNQ2(L249A/L275A) mutant; assay type: cell-based
# T4 construct: expressed in transfected cells
# Text: (§3) FIG. 9. KCNQ2 point mutants selectively lose ZnPy sensitivity. […] Each mutation site was indicated based on the predicted transmembrane regions. Dashed line indicates the potentiation level of wt KCNQ2 channel in the absence of ZnPy. […] C. Modeling of the S5-pore-S6 region of KCNQ2.
# (§4) Mutagenesis—Starting from KCNQ cDNAs, the KCNQ2 point mutants were constructed by recombinant PCR and verified by sequencing.
# (§5) Electrophysiological Recording—Standard whole-cell recording was used. Pipettes were pulled from borosilicate glass capillaries (TW150-4, World Precision Instruments, Sarasota, Fla.). When filled with the intracellular solution, the pipettes have resistances of […]. During the recording, constant perfusion of extracellular solution was maintained using a BPS perfusion system (ALA, Westbury, N.Y.). Pipette solution contained (mM): KCl 145, MgCl2 1, EGTA 5, HEPES 10, MgATP 5 (pH 7.3); extracellular solution contained (mM): NaCl 140, KCl 3, CaCl2 2, MgCl2 1.5, HEPES 10, glucose 10 (pH 7.4). Current and voltage were recorded using an Axopatch-200A amplifier, filtered at 1 kHz and digitized using a DigiData 1322A with pClamp 9.2 software (Axon Instruments, Foster City, Calif.). Series resistance compensation was also used and set to 60-80%.
# KCNQ2(R207W) = target: T5, KCNQ2(R207W) (Rattus norvegicus, UniProt O88943, R207W); assay: Whole-cell recording of KCNQ2(R207W) BFNC mutant in CHO cells; assay type: cell-based; conditions: 10 μM ZnPy
# T5 construct: expressed in transfected cells; host or cells: CHO cells, transient
# Method: FIG. 11. ZnPy effects on BFNC mutant channels expressed in CHO cells. A. whole-cell currents of KCNQ2(R207W), KCNQ2(Y284C), and KCNQ2(A306T) were recorded in the absence (left) and presence (right) of 10 μM ZnPy, Vh was −80 mV, in 10 mV voltage steps from −70 mV to +50 mV. B. a histogram plotting potentiation effects on KCNQ2 wild type (wt) and BFNC mutants (R207W, Y284C and […]) by ZnPy (filled box) and retigabine (open box) (n≧4, * p<0.001, ** p<0.05).
# as §4
# as §5, with “Series resistance compensation was also used and set to 60-80%.” left out
# KCNQ2 L249A = target: T6, KCNQ2 L249A (Rattus norvegicus, UniProt O88943, L249A); assay: Whole-cell recording of KCNQ2 L249A mutant; assay type: cell-based
# T6 construct: expressed in transfected cells
# Text: as §3, §4, §5
# KCNQ2 L275A = target: T7, KCNQ2 L275A (Rattus norvegicus, UniProt O88943, L275A); assay: Whole-cell recording of KCNQ2 L275A mutant; assay type: cell-based
# T7 construct: expressed in transfected cells
# Text: as §3, §4, §5
# [1] = system: lymphocytic leukemia cells; conditions: micromolar concentrations; cited from earlier work
compound,measurement,setting,value
"S=c1ccccn1[O][Zn][O]n1ccccc1=S [ZnPy, Zinc Pyrithione]",change of V1/2,KCNQ3,no change on V1/2
same,current potentiation,KCNQ3; extracellular,did not show any current potentiation; also recorded: has no effect on KCNQ3
same,effect on channel activity,KCNQ1,potentiated; also recorded: potentiates KCNQ1
same,effect on channel activity,KCNQ5,became conductive upon ZnPy treatment
same,V1/2 shift caused by ZnPy,KCNQ2(L249A/L275A),completely abolished the V1/2 shift
same,folds of current increase,"KCNQ2(L249A/L275A); +50 mV, ZnPy",8.6±2.2 folds
same,fold current increase,KCNQ2(R207W),more than 3 fold
same,change in V1/2 caused by ZnPy,KCNQ2 L249A,significant reduction on changes in V1/2
same,change in V1/2 caused by ZnPy,KCNQ2 L275A,significant reduction on changes in V1/2
same,anti-apoptotic effect in vitro,[1],protected lymphocytic leukemia cells against colchicine-induced apoptosis
